Measurements as given in publication PMC5007552, “The hVps34‐SGK3 pathway alleviates sustained PI3K/Akt inhibition by stimulating mTORC1 and tumour growth” (The EMBO Journal, 2016).

Legend:
[1] = target: T1, SGK3 (Homo sapiens, UniProt Q96BR1); assay: IC50 on recombinant SGK3; type: biochemical; details: recombinant kinase
T1 sequence (Q96BR1 1-496): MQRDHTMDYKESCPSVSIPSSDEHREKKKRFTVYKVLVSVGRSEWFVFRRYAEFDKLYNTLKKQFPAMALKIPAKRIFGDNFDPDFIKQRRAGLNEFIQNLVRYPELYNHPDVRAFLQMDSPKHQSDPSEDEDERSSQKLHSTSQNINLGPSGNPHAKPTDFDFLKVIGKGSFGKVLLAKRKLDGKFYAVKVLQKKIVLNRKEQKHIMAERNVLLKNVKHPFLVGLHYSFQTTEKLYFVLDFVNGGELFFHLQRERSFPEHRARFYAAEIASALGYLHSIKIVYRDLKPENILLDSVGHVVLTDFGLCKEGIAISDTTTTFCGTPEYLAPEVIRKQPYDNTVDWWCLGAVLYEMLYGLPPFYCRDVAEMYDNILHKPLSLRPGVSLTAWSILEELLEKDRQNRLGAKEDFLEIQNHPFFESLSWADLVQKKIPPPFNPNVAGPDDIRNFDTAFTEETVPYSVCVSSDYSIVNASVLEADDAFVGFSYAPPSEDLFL
Procedure: (§1) The result for each kinase is presented as a mean kinase activity of the reaction taken in triplicate relative to a control reaction where the inhibitors were omitted. […] SGK3 was immunoprecipitated from cell lysates and subjected to in vitro kinase assay by measuring phosphorylation of the Crosstide substrate peptide in the presence of 0.1 mM [γ‐^32P]ATP in a 30 min 30°C reaction (upper panel). Kinase reactions are presented as means ± SD for triplicate reaction.
(§2) Appendix Figure S1. […] (A) Chemical struc tures of
(§3) Sano/f_i-14g, -14i and -14n compounds. (B) IC50 values of inhibitors on indicated recombinant k inases. […]

[2] = target: PKBa (Homo sapiens, UniProt P31749); assay: IC50 on recombinant PKBa (Akt1); type: biochemical; details: Fig 5B / Appendix Fig S1B, recombinant kinase, unit inferred
PKBa, sequence (P31749 whole entry): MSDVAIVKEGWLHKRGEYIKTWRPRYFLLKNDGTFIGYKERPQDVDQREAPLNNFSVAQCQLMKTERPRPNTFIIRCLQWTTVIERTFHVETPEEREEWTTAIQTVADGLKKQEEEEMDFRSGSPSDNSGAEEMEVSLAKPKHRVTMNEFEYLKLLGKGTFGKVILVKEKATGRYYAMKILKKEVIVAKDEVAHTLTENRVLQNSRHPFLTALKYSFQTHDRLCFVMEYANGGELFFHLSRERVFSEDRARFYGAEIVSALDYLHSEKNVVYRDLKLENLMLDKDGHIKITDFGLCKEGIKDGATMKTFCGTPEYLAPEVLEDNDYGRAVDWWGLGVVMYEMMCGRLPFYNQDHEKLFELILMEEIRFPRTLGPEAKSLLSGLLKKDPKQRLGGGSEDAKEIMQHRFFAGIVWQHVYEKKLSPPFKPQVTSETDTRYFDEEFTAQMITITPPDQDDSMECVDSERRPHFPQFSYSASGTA
Procedure: as §1, §2, §3

IC50 [1]: 4 nM | IC50 [2]: > 10000 nM
Compound: Nc1n[nH]c2nc(-c3ccc(NS(=O)(=O)c4cc(Cl)ccc4Cl)cc3)cnc12 [14h]
